Here are results for 104 molecules from PubChem BioAssay AID1996.

Each structure is given as a SMILES string. In brackets after ≈: the same amount, converted by molar mass.

Usually kinetic solubility stands for the concentration staying in solution when a stock, usually in DMSO, is diluted into the medium.

For the data set the following is noted: buffer; pH 7.4; 200.0 µM.
`Cc1ccc(OCCn2ccnc2)c([N+](=O)[O-])c1` gave a solubility (kinetic) of 26.8 µg/mL (≈ 108 µM).

`CCOCC(=O)Nc1ccc(S(=O)(=O)NCC2CCCO2)cc1` (centres undefined) gave a kinetic solubility above 51.4 µg/mL. The same measure for `O=C(CN1C(=O)c2cccc([N+](=O)[O-])c2C1=O)NCc1ccccc1`: above 50.9 µg/mL; for `Cc1ccc(S(=O)(=O)N2CCOCC2)cc1NC(=O)COC(=O)c1ccc(Cl)s1`: 3 µg/mL (≈ 6.54 µM). The same measure for `CC1(NC(=O)Cc2csc(-c3ccc(Cl)cc3)n2)CCS(=O)(=O)C1` (centres undefined): above 57.7 µg/mL. As for `Cn1c(/C(C#N)=C(\O)c2cc(Cl)sc2Cl)nc2ccccc21`, the figure is 0.9 µg/mL (≈ 2.57 µM). In the case of `COC(=O)c1cc(Cl)nc2ccccc12`, the solubility (kinetic) came out at 7.9 µg/mL (≈ 35.6 µM). For `Cc1cc(Cl)nc(Cl)c1C(=O)NCc1ccc(Cl)cc1`, the kinetic solubility turned out to be 6.8 µg/mL (≈ 20.6 µM). In the case of `COC(=O)C1=C(N)Oc2cc(C)[nH]c(=O)c2C1c1ccc(Cl)cc1` (centres undefined), the solubility (kinetic) is 1.7 µg/mL (≈ 4.9 µM).

`O=C(Nc1cc([N+](=O)[O-])ccc1O)c1cccc([N+](=O)[O-])c1` registered a kinetic solubility of 37.1 µg/mL (≈ 122 µM). As for `Cc1ccc(C)c(NCC(O)c2ccccc2)c1` (centres undefined), the figure is above 36.2 µg/mL; as for `CCN1CCCC1CNC(=O)c1cc2cc(OC)c(OC)cc2[nH]1` (centres undefined), above 49.7 µg/mL; as for `COC(=O)CSc1nc(C)cc(C)n1`, above 31.8 µg/mL.

Take `COc1ccc(C(=O)NC(CCSC)C(=O)NC2CC2)cc1` (centres undefined): the kinetic solubility was above 48.4 µg/mL.

Molecule `O=C(O)CCn1c(-c2ccccn2)nc2ccccc21` returned a kinetic solubility above 40.1 µg/mL. Turning to `CC(NC(=O)c1c(F)cccc1Cl)c1ccc(-n2ccnc2)cc1` (centres undefined), the kinetic solubility is above 51.6 µg/mL. `C#CC[N+](CC)(CC)CC#Cc1ccccc1.[Br-]` had a kinetic solubility of 37.8 µg/mL. `N#Cc1c(C(F)(F)F)cc(-c2cccs2)nc1SCC(=O)O` had a kinetic solubility of 46.1 µg/mL (≈ 134 µM). As for `Cc1ccc(/C=C2\CCn3c2nc2cc(C(=O)O)ccc2c3=O)c(C)c1`, the solubility (kinetic) was 45.7 µg/mL (≈ 132 µM). As for `CCOC(=O)NC(=S)Nc1ccc(C(C)(C)C)cc1Br`, the figure is 1.6 µg/mL (≈ 4.45 µM); as for `O=C(NC1CCCCC1)c1cc(-c2ccccc2O)on1`, 0.6 µg/mL (≈ 2.1 µM); as for `CCOC(=O)C1CCN(C(=O)/C=C/c2ccc(S(=O)(=O)N3CCOCC3)cc2)CC1`, above 65.5 µg/mL. As for `OCC1(Cc2ccccc2)CCN(Cc2cc3ccccc3o2)CC1`, the figure is above 50.3 µg/mL; as for `O=C(O)CN1C(=O)CSC1=S`, above 28.7 µg/mL. As for `CCOC(=O)Cn1ccc(-c2ccccc2)c(C#N)c1=O`, the figure is above 42.3 µg/mL; as for `COc1ccc(F)cc1S(=O)(=O)NCC1CCCO1` (centres undefined), above 43.4 µg/mL. On to `CCC(Oc1ccccc1F)C(=O)Nc1ccc2c(c1)n(C)c(=O)n2C` (centres undefined), for which the kinetic solubility amounted to 49 µg/mL (≈ 137 µM). As for `N#CCc1ccc(OC(=O)Nc2ccccc2)cc1`, the figure is 36.4 µg/mL (≈ 144 µM); as for `O=C(c1cc2c(ccc3ccccc32)o1)N1CCCCC1`, 2.6 µg/mL (≈ 9.31 µM); as for `NS(=O)(=O)c1ccc(NC(=O)CCCC(=O)O)cc1`, above 42.9 µg/mL. Take `Cc1cccc(NC(=O)c2ccc(S(=O)(=O)N(C)c3ccccc3)cc2)n1`: the kinetic solubility was determined as 11.6 µg/mL (≈ 30.4 µM).

Take `CCCCN(CC)C(=O)c1cc2c(=O)n3cccc(C)c3nc2s1`: the kinetic solubility turned out to be 44.5 µg/mL (≈ 130 µM). On to `O=C(NC(=S)N1CCN(c2ccccc2)CC1)c1ccccc1`, for which the solubility (kinetic) is 6.4 µg/mL (≈ 19.7 µM). In turn, `CCC(=O)c1ccc(OCC(=O)OCC(=O)NCC2CCCO2)cc1` (centres undefined) had a kinetic solubility of 49.5 µg/mL (≈ 142 µM). The same measure for `NC(=O)Cc1nc(-c2ccc(F)cc2)cs1`: above 35.4 µg/mL; for `CC(=O)Oc1ccc2oc(-c3ccccc3)c(C(N)=O)c2c1`: 1.4 µg/mL (≈ 4.74 µM); for `COc1ccc(C(=O)CC(=O)C(=O)Nc2cc(C)ccc2C)cc1`: 11.2 µg/mL (≈ 34.4 µM). Molecule `Cc1ccc2cc(N)ccc2n1` showed a kinetic solubility above 23.7 µg/mL. The same measure for `COC(=O)c1ccc(Nc2c([N+](=O)[O-])c(=O)oc3ccccc23)cc1`: 4.1 µg/mL (≈ 12 µM); for `O=C(NCc1ccccc1)C(=O)Nc1nccs1`: 3.1 µg/mL (≈ 11.9 µM); for `COc1ccccc1-c1nc2ccccc2c(=O)n1O`: above 40.2 µg/mL. `CC1CCN(C(=O)CNC(=O)c2ccc(Br)o2)CC1` registered a solubility (kinetic) above 49.4 µg/mL.

Molecule `COc1ccccc1NC(=O)C1CCN(C(=O)c2ccco2)CC1` yielded a kinetic solubility above 49.3 µg/mL. `CC(=O)NCC1COc2ccccc2O1` (centres undefined) came in with a solubility (kinetic) above 31.1 µg/mL. For the molecule `O=C(COC(=O)c1cccc(F)c1)Nc1cccnc1Cl`, the kinetic solubility came to 41.7 µg/mL (≈ 135 µM).

In turn, `O=C1NCCCN1Cc1ccc(Cl)cc1` yielded a kinetic solubility above 33.7 µg/mL. The same measure for `COC(=O)c1sccc1NC(=O)Nc1ccc(C)cc1`: 10.1 µg/mL (≈ 34.8 µM); for `COc1ccc2oc(N)c(C=O)c(=O)c2c1`: 30.8 µg/mL (≈ 141 µM); for `O=C(OCC(=O)N1CCOCC1)c1ccc(Cl)cc1[N+](=O)[O-]`: 48.3 µg/mL (≈ 147 µM). For `COc1cccc(C(=O)NCCS(=O)(=O)N2CCCC2)c1`, the solubility (kinetic) was above 46.9 µg/mL. `CC1CCN(CCCNc2cc(NCCO)c([N+](=O)[O-])c3nonc23)CC1`: the kinetic solubility was above 56.8 µg/mL. `COC(CNc1ccc([N+](=O)[O-])c(NCC(OC)OC)c1C#N)OC` came in with a solubility (kinetic) of 19 µg/mL (≈ 53.6 µM). Regarding `Cc1cccc(NC(=O)Nc2ccc(Cl)c(Cl)c2)n1`, the kinetic solubility is below 0.2 µg/mL. The same measure for `Cc1cc(NC(=O)c2cccs2)no1`: above 31.2 µg/mL; for `O=C(Nc1ccc(F)cc1)c1ccc(CSc2ccc(Cl)cc2)o1`: 4.3 µg/mL (≈ 11.9 µM); for `O=C(c1ccc(N2C(=O)c3ccccc3C2=O)cc1)N1CCCCC1`: above 50.2 µg/mL.

On to `CC(C)(C)c1ccccc1NC(=O)c1cc(-c2ccncc2)nc2ccccc12`, for which the solubility (kinetic) was 10.8 µg/mL (≈ 28.3 µM).

`CC(C)COc1ncnc2c1sc1nc3c(cc12)COC(C)(C)C3` came in with a solubility (kinetic) of 3.7 µg/mL (≈ 10.8 µM).

Molecule `N/C(=N\OC(=O)c1cccc(F)c1)c1ccccn1` came in with a solubility (kinetic) of 37.4 µg/mL (≈ 144 µM). As for `CC(=O)Nc1ccc2c(c1)N(C(C)=O)c1ccccc1CC2`, the figure is above 44.2 µg/mL; as for `NS(=O)(=O)c1ccc(NC(=O)Nc2ccc(C(F)(F)F)cc2)cc1`, below 0.3 µg/mL. Turning to `O=S(=O)(c1cccc2nonc12)N1CCCCCC1`, the solubility (kinetic) was 15.7 µg/mL (≈ 55.8 µM). The same measure for `COc1ccccc1NC(=O)c1sc(Cl)nc1C`: 36.8 µg/mL (≈ 130 µM).

On to `N#Cc1ccc(C(=O)NCC2CCCCC2)cc1`, for which the solubility (kinetic) stood at 19.9 µg/mL (≈ 82.1 µM). The same measure for `Cc1cc(C)c2oc(C(=O)NCc3ccccc3)cc(=O)c2c1`: 2.3 µg/mL (≈ 7.48 µM); for `C#CCOc1ccc(C2C(C#N)=C(N)Oc3cc(O)ccc32)cc1` (centres undefined): 34.5 µg/mL (≈ 108 µM).

On to `CCCNC(=O)c1ccc(C)c(NC(=O)C2=C(C)OCCS2)c1`, for which the kinetic solubility is above 50.2 µg/mL. As for `Cn1cncc1COC(=O)c1ccc(Cl)cc1`, the kinetic solubility was above 37.6 µg/mL.

In the case of `CN1CCCN(C(=O)c2ccc(Br)cc2)CC1`, the kinetic solubility worked out at 41.4 µg/mL (≈ 139 µM). For `Cc1ccccc1NC(=O)CN1C(=O)c2ccccc2C1=O`, the kinetic solubility turned out to be 8.5 µg/mL (≈ 28.9 µM). Consider `CC(C)C(=O)NC(c1ccc(Cl)cc1Cl)c1ccc2cccnc2c1O` (centres undefined), for which the solubility (kinetic) turned out to be 2.8 µg/mL (≈ 7.19 µM). As for `CCOC(=O)CSc1ccc2ccccc2n1`, the figure is 19.5 µg/mL (≈ 78.8 µM); as for `CCN(C(=S)NC(=O)C1CC1)c1ccccc1`, above 37.3 µg/mL. As to `COCCN(C(=O)c1ccccc1OC)c1nnc(C)s1`, the kinetic solubility is above 46.1 µg/mL. The molecule `CC(=O)c1cc(N2CCOCC2)ccc1[N+](=O)[O-]` displayed a kinetic solubility above 37.5 µg/mL.

The molecule `CC1(C)C2([N+](=O)[O-])CN3CC1([N+](=O)[O-])CN(C2)C3c1ccccn1` (centres undefined) had a solubility (kinetic) of 7.9 µg/mL (≈ 23.7 µM). `O=C(NCc1cccnc1)C1CC(c2cccc(Br)c2)=NO1` (centres undefined): the solubility (kinetic) was 52.5 µg/mL (≈ 146 µM). The same measure for `O=C(/C=C/c1ccccc1[N+](=O)[O-])Nc1cccc(S(=O)(=O)NC2=NCCCCC2)c1`: 14.4 µg/mL (≈ 32.5 µM); for `Cc1cc(Sc2nc(N(C)C)nc(N(C)C)n2)nc(Cl)n1`: 1 µg/mL (≈ 3.07 µM). For the molecule `CC(C)[C@H](NC(=O)c1ccccc1)C(=O)OCC(=O)Nc1ncc(Cl)cc1Cl`, the kinetic solubility worked out at 46 µg/mL (≈ 108 µM). In turn, `CCN(Cc1ccccc1)C(=O)c1ccc(SC)cc1OC` had a solubility (kinetic) of 45.8 µg/mL (≈ 145 µM).

The molecule `Cc1ccc2oc(C(=O)Nc3nonc3C)c(C)c2c1` returned a solubility (kinetic) below 0.2 µg/mL. The same measure for `Cn1nc(C(=O)NNC(=O)c2cccc(Cl)c2)ccc1=O`: above 46 µg/mL. The same measure for `CN1C(=O)/C(=C\c2ccccc2OCc2ccccc2)SC1=S`: below 0.7 µg/mL. `COC(=O)c1cn(CC(=O)Nc2ccccc2C)c2ccccc12` yielded a solubility (kinetic) of 0.4 µg/mL (≈ 1.24 µM). As for `COc1ccccc1C1(O)C(=O)Nc2ccccc21` (centres undefined), the figure is above 38.3 µg/mL; as for `O=C(Nc1cccnc1)c1ccccc1Cl`, above 34.9 µg/mL; as for `COc1cccc(CNc2cc(C)ccn2)c1O`, above 36.6 µg/mL. On to `COc1ccccc1N1CCN(C(=O)c2c(C)noc2C)CC1`, for which the kinetic solubility was above 47.3 µg/mL. In turn, `COc1ccc(N2CCN(C(=O)CCc3ccccc3)CC2)cc1` had a kinetic solubility above 48.7 µg/mL. Regarding `CCC[C@H](N[C@@H](CCC)[C@H](O)c1ccccc1)[C@H](O)c1ccccc1`, the solubility (kinetic) stood at 5.4 µg/mL (≈ 15.8 µM). Regarding `COCC(=O)N1CCN(c2nc3ccccc3o2)CC1`, the kinetic solubility was above 41.3 µg/mL. The same measure for `CCOC(=O)C1CCN(C(=O)Nc2c(-c3ccccc3)noc2C)CC1`: 52.1 µg/mL (≈ 146 µM); for `COC(=O)/C(C#N)=C/c1ccc(C)o1`: 20.7 µg/mL (≈ 108 µM). The same measure for `COc1cc(SC)ccc1C(=O)NCCCn1ccnc1`: above 45.8 µg/mL; for `c1ccc(Nc2ccnc(Nc3ccccc3)n2)cc1`: 6.7 µg/mL (≈ 25.5 µM). The molecule `Cc1cc(NC(=O)CSc2nc3c(C)cccc3cc2C)no1` returned a solubility (kinetic) below 0.2 µg/mL.

In turn, `NC(=O)C1CCN(Cc2nc(-c3cccs3)no2)CC1` had a solubility (kinetic) above 43.9 µg/mL. The same measure for `CCc1nc2sc3c(Cl)ncnc3c2c2c1CCCC2`: below 0.2 µg/mL. As for `Cc1occc1C(=O)Nc1ccccc1C#N`, the figure is above 33.9 µg/mL; as for `COC(=O)c1cc2c(=O)c3ccccc3oc2nc1/C=C/N(C)C`, 30.1 µg/mL (≈ 92.8 µM); as for `Cc1cnc(NC(=O)c2ccc(-c3ccc([N+](=O)[O-])cc3)o2)s1`, 1.9 µg/mL (≈ 5.77 µM).

Turning to `CC(C)N1CCN(Cc2ccc3c(c2)OCCO3)CC1CCO` (centres undefined), the solubility (kinetic) was found to be 45.5 µg/mL (≈ 142 µM). For `C=CC[n+]1cccc(-c2cc3ccc(C)cc3[nH]2)c1.[Br-]`, the kinetic solubility was above 49.4 µg/mL.
